Assay results: patent US11224243B2, “Taste-modifying combinations” (FIRMENICH SA, priority 2012, dated 2022)

Tests used:
umami taste [1] = experiment: Evaluation of amides 1 and 4 in a pork flavor, trained panel; type: in vivo, human; details: amide at 20 ppm in pork flavor; scale 0 to 10; 5 panelists; pork flavor alone = 4.5
Procedure: 3) Evaluation of Amides 1 and 4 in a Pork Flavor
Amides 1 and 4 were evaluated at 20 ppm by 5 trained panelists in a pork flavor on a blind test basis as described above.

umami taste [2] = experiment: Umami intensity and liking of amide 1, an ingredient and their blend in hot mineral water, trained panel; type: in vivo, human
Procedure: Pat. No. 7,807,206 (containing Rebaudioside A and stevioside), sea salt, succinic acid, yeast extract, hydrolyzed corn protein, or hydrolyzed wheat gluten) and a blend of the amide with the ingredient were weighed and hot mineral water was added to each sample according to the dosages indicated in each experiments. The samples were stirred in order to ensure the solubilisation of the ingredients. Each sample was coded, and tasted in a random order by 5 trained panelists. […] The panelists were also asked to describe the samples.

[3] = Table 10, scale 1-10, MSG 0.04%, Amide 1 20 ppm, glucosylated stevosides 8 ppm, blend 20 ppm + 8 ppm
[4] = Table 11, scale 1-10, MSG 0.04%, Amide 1 20 ppm, Sea Salt 0.03%, blend 20 ppm + 0.03%
[5] = Table 12, scale 1-10, MSG 0.04%, Amide 1 20 ppm, Succinic acid 36 ppm, blend 20 ppm + 36 ppm
[6] = Table 13, scale 1-10, MSG 0.04%, Amide 1 20 ppm, Yeast extract 60 ppm, blend 20 ppm + 60 ppm
[7] = Table 14, scale 1-10, MSG 0.04%, Amide 1 20 ppm, Yeast extract 175 ppm, blend 20 ppm + 175 ppm
[8] = Table 15, scale 1-10, MSG 0.04%, Amide 1 10 ppm, Yeast extract 60 ppm, blend 10 ppm + 60 ppm
[9] = Table 16, scale 1-10, MSG 0.04%, Amide 1 20 ppm, Hydrolized corn protein 40 ppm, blend 20 ppm + 40 ppm
[10] = Table 17, scale 1-10, MSG 0.04%, Amide 1 20 ppm, Hydrolized corn protein 320 ppm, blend 20 ppm + 320 ppm
[11] = Table 18, scale 1-10, MSG 0.04%, Amide 1 20 ppm, Hydrolized wheat gluten 100 ppm, blend 20 ppm + 100 ppm
[12] = Table 19, scale 1-10, MSG 0.04%, Amide 1 10 ppm, Nature Pep 971481 100 ppm, blend 10 ppm + 100 ppm

Work on `COc1ccc(CCNC(=O)/C=C/c2ccc(OC)c(OC)c2)cc1` [Amide 1, (E)-3-(3,4-dimethoxyphenyl)-N-(4-methoxyphenethyl)acrylamide] yielded a Umami intensity (umami taste [1]) of 6, a Umami (umami taste [2]; [3]) of 4.8 and a Umami (umami taste [2]; [4]) of 3.3. The Umami (umami taste [2]; [5]) was 3.7, the Umami (umami taste [2]; [6]) was 4.5 and the Umami (umami taste [2]; [7]) was 4.5. The Umami (umami taste [2]; [8]) was 2.5, the Umami (umami taste [2]; [9]) was 4.2 and the Umami (umami taste [2]; [10]) was 1.7. For the same compound, the Umami (umami taste [2]; [11]) was 4.0 and the Umami (umami taste [2]; [12]) was 3.7.
For `COc1cccc(CCNC(=O)/C=C/c2ccc(OC)c(OC)c2)c1` [Amide 4, (E)-3-(3,4-dimethoxyphenyl)-N-(3-methoxyphenethyl)acrylamide], the Umami intensity (umami taste [1]) was 7.
In the case of `N[C@@H](CCC(=O)O)C(=O)[O-].[Na+]` [MSG, monosodium glutamate, reference compound], the Umami (umami taste [2]; [3]) is reported as 5.8, the Umami (umami taste [2]; [4]) is reported as 5.8 and the Umami (umami taste [2]; [5]) is reported as 4.2. The Umami (umami taste [2]; [6]) was 5.5, the Umami (umami taste [2]; [7]) was 5.5 and the Umami (umami taste [2]; [8]) was 4.0. For the same compound, the Umami (umami taste [2]; [9]) was 5.4, the Umami (umami taste [2]; [10]) was 3.0 and the Umami (umami taste [2]; [11]) was 5.5. The Umami (umami taste [2]; [12]) was 7.2.
With `O=C(O)CCC(=O)O` [Succinic acid, succinic acid] the Umami (umami taste [2]; [5]) was 1.0.
